“Also recorded” adds a separate entry of the source.
Assays:
[1] = system: murine, human and metastatic tumors; details: mice, cited from earlier work
[2] = high chemotherapeutic doses; cited from earlier work
[3] = Balance beam motor coordination test (neurotoxicity); format: in vivo, mouse; details: free TNP-470 injected subcutaneously 30 mg/kg q.o.d., vs control
Description: A slightly modified balance beam motor coordination test was performed on three groups of mice: Oral Lodamin treated mice (30 mg/kg eq. q.o.d.), free TNP-470 (30 mg/kg) subcutaneously injected mice and water treated mice (administered by gavage). The mice were pretreated for 14 d (n=4-5 per group) and then the mice were allowed to acclimate to the procedure room for 1 h, after which they were trained in 3 trials to cross a wide (20 mm width×1 m length) balance beam. All the mice crossed the wide beam without making foot-slip errors. The mice were then trained on a narrow (4 mm width×1 m length) beam for 3 trials. At the end of the training trials, no freezing behavior was observed, and the mice would start to walk within 4 seconds of being placed on the beam. The mice were then videotaped as they performed in 3 test trials of 3 beam crossings each—a total of 9 crossings per mouse. The 3 trials were separated by at least 1 h to avoid fatigue of the mice. Videotaped crossings were scored for number of foot-slip errors and time to cross. All experiments and scoring of the different groups were performed by an investigator who has been no knowledge regarding the treatment regime of the mice.

RAGE and HMGB-1 = RAGE and HMGB-1 protein levels in HMVEC; format: cell-based; details: 0.1-100 nM
Description: A dose dependent effect on RAGE expression was detected.
RPE cells were cultivated as has been previously described^59. […] HMVECs, were purchased from Cambrex Bio Science Inc. (Rockland, Me.) and were maintained on collagen I coated plates with endothelial cell growth medium containing 2% FBS (EGM-2; Cambrex, Inc.) at 37° C. with humidified 95% air/5% CO2.
Lodamin Reduces MCP-1 and VEGF Induced Vessel Permeability

obesity = details: mice; cited from earlier work
[4] = parent drug; cited from earlier work
[5] = Body distribution and serum levels after oral administration; format: in vivo, mouse; details: post-administration
Description: For all biodistribution studies we used a fluorescent marker for tracking Lodamin. Mice were administered 6-coumarin labeled mPEG-PLA by oral gavage for 3 d (100 μl of 1.5 mg/ml). On the third day of treatment, after 8 h of fasting, animals were sacrificed and spleen, kidney, brain, lungs, liver, intestine, stomach, and bladder were collected. The fluorescent 6-coumarin was extracted from the tissues by incubation with formamide for 48 h at 25° C. Samples were centrifuged and signal intensity of fluorescence of supernatants was detected with a Wallac 1420 VICTOR plate-reader (Perkin-Elmer Life Sciences) with excitation/emission at 488 nm/530 nm. […] Tissue autofluorescence was corrected by subtracting the fluorescent signal of non-treated mouse organs from the respective readings in treated mice. Similarly, levels of fluorescent signal in mouse sera were measured in different time points (1, 2, 4, 8, 24, 48 and 72 h) using excitation/emission readings at 488 nm/530 nm.
In order to analyze cell uptake in the different tissues in tumor bearing mice, PEG-PLA-rhodamine micelles (100 μl of 1.5 mg/ml) or water were orally administered to C57Bl/6J mice bearing LLC tumors (200 mm^3) for 3 d. […] These suspensions were analyzed by flow cytometry in order to quantify the uptake of micelles into different tissue cells when compared to those in the untreated mouse.

LLC tumors = experiment: Oral Lodamin vs free TNP-470, primary Lewis lung carcinoma tumor experiments; format: in vivo, mouse; details: free TNP-470 given orally, 30 mg/kg q.o.d.
Description: For tumor experiments: LLC cells (1×10^6) or B16/F10 melanoma cells (1×10^6) were implanted subcutaneously in 8 week old C57Bl/6J male mice (Jackson Laboratories, Bar Harbor, Me.). Oral availability of free TNP-470 was compared to that of Lodamin. A dose of 30 mg/kg q.o.d. of free TNP-470 and an equivalent dose of Lodamin (Lodamin, 6 mg in 100 μl/d) were administered to LLC tumor bearing mice (˜100 mm^3) and tumor growth was followed for 18 d. Free drug was given as a suspension in double distilled water and freshly prepared before each dose. Additionally, we compared different doses and frequencies of Lodamin treatment: 15 mg/kg q.d., 15 mg/kg q.o.d. and 30 mg/kg q.o.d. To eliminate any possible effect of the vehicle (polymer without drug) one group of mice was given micelles without drug and tumor progression was compared to water treated mice.
For the melanoma tumor experiment, a dose of 15 mg/kg q.d. Lodamin was administered to B16/F10 melanoma bearing mice. In all experiments, tumor size and animal weight were monitored every 2 d. Tumor volume was measured with calipers in two diameters as follows: (width)^2×(length)×0.52. Note that all the above Lodamin doses are presented as TNP-470 equivalent.

6-O—(N-chloroacetylcarbamoyl)fumagillol [TNP-470]
inhibition of growth of human tumors [1]: up to 100%
inhibition of growth of metastatic tumors [1]: up to 100%
inhibition of growth of murine tumors ([1]; mostly 30 mg/kg subcutaneously every other day): up to 91%
neurotoxicity in patients [2]: many patients experience neurotoxicity
balance beam foot-slip errors [3]: over twice as many errors
RAGE and HMGB-1 levels (RAGE and HMGB-1): reduced in a dose dependent manner
effect on obesity (obesity): prevent diet-induced and genetic obesity
plasma half-life [4]: a few minutes
time up to which free drug was detected in mice sera [5]: up to 2 h
effect on growth of subcutaneous LLC tumors (LLC tumors): no inhibition; also recorded: had no effect

— patent US9789199B2, “MetAP-2 inhibitor polymersomes for therapeutic administration” (priority 2007, dated 2017)
